This passage reports T/C results from PubChem BioAssay AID328 (DTP/NCI, 2004).

Several values for one entry are separate records, joined by “and”; a condition that tells them apart may be missing. Equal values may be shown once. Toxic doses and inconclusive results are not listed.

In this assay the test system is BDF1 mice, P388 leukemia ip, median survival T/C. In words: NCI In Vivo Anticancer Drug Screen. Data for tumor model P388 Leukemia (intraperitoneal) in B6D2F1 (BDF1) mice. Conditions: endpoint: median survival time, higher = longer survival. In a few lines: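 Antitumour effect was judged in vivo: survival in drug-treated mice, normalised to that of vehicle-dosed controls, gives the reported T/C.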

Setting [1] is: dose: 100.0 mg/kg/injection, schedule: Q04DX003 (ip), vehicle: saline with Tween-80.
Setting [2] is: dose: 200.0 mg/kg/injection, schedule: Q04DX003 (ip), vehicle: saline with Tween-80.
Where [3] appears, read: dose: 400.0 mg/kg/injection, schedule: Q04DX003 (ip), vehicle: saline with Tween-80.
Setting [4] is: dose: 20.0 mg/kg/injection, schedule: Q01DX009 (ip), vehicle: saline with Tween-80.
Where [5] appears, read: dose: 100.0 mg/kg/injection, schedule: Q01DX009 (ip), vehicle: saline with Tween-80.
Where [6] appears, read: dose: 200.0 mg/kg/injection, schedule: Q01DX009 (ip), vehicle: saline with Tween-80.
Where [7] appears, read: dose: 400.0 mg/kg/injection, schedule: Q01DX009 (ip), vehicle: saline with Tween-80.
[8] abbreviates: dose: 25.0 mg/kg/injection, schedule: Q01DX009 (ip), vehicle: saline with Tween-80.
[9] abbreviates: dose: 50.0 mg/kg/injection, schedule: Q01DX009 (ip), vehicle: saline with Tween-80.

For `COc1ccc(C2C=C(C)Oc3c2c(=O)oc2ccccc32)cc1OC` (stereo unspecified), the T/C is 98 % of control (dose: 6.25 mg/kg/injection, schedule: Q04DX003 (ip), vehicle: water); 91 % of control (dose: 12.5 mg/kg/injection, schedule: Q01DX009 (ip), vehicle: water); 104 % of control (dose: 12.5 mg/kg/injection, schedule: Q04DX003 (ip), vehicle: water); 100 % of control (dose: 25.0 mg/kg/injection, schedule: Q04DX003 (ip), vehicle: water); 100 % of control (dose: 50.0 mg/kg/injection, schedule: Q04DX003 (ip), vehicle: water); 88 % of control and 96 % of control (dose: 100.0 mg/kg/injection, schedule: Q04DX003 (ip), vehicle: water). Further, the T/C is, setting by setting: (dose: 200.0 mg/kg/injection, schedule: Q04DX003 (ip), vehicle: water) 94 % of control; (dose: 400.0 mg/kg/injection, schedule: Q04DX003 (ip), vehicle: water) 90 % of control.
For `Cc1ccc(S(=O)(=O)N(C)c2ccc(C#N)c(Cl)c2Cl)cc1`, the T/C by setting is: under setting [1], 90 % of control; under setting [2], 86 % of control; under setting [3], 90 % of control.
Regarding `CN1CCN(c2nn3nnnc3c3ccccc23)CC1`, the T/C reads like this: under setting [4], 89 % of control; (dose: 40.0 mg/kg/injection, schedule: Q01DX009 (ip), vehicle: saline with Tween-80) 94 % of control; (dose: 80.0 mg/kg/injection, schedule: Q01DX009 (ip), vehicle: saline with Tween-80) 93 % of control.
On to `O=C(O)Cc1ccc(C2CCCCC2)cc1`, for which the T/C is, setting by setting: (dose: 100.0 mg/kg/injection, schedule: Q01DX009 (ip), vehicle: Klucel (hydroxypropylcellulose) (HPC)) 91 % of control and 95 % of control; (dose: 200.0 mg/kg/injection, schedule: Q01DX009 (ip), vehicle: Klucel (hydroxypropylcellulose) (HPC)) 90 % of control; (dose: 400.0 mg/kg/injection, schedule: Q01DX009 (ip), vehicle: Klucel (hydroxypropylcellulose) (HPC)) 90 % of control and 100 % of control.
As to `COS(C)(=O)=O`, the T/C is 100 % of control (dose: 12.5 mg/kg/injection, schedule: Q01DX010 (ip), vehicle: saline); 104 % of control (dose: 25.0 mg/kg/injection, schedule: Q01DX010 (ip), vehicle: saline); 108 % of control (dose: 50.0 mg/kg/injection, schedule: Q01DX010 (ip), vehicle: saline).
Take `C[N+]1(C)CCCC1`: the T/C by setting is: (dose: 6.25 mg/kg/injection, schedule: Q04DX003 (ip), vehicle: saline) 100 % of control; (dose: 12.5 mg/kg/injection, schedule: Q04DX003 (ip), vehicle: saline) 100 % of control.
Regarding `C=C1[C@@H](O)[C@]2(O)OC[C@@]34[C@H]1[C@@H](OC(=O)C(C)CC)C(=O)O[C@@H]3C[C@H]1C(C)=CC(=O)[C@@H](O)[C@]1(C)[C@@H]24` (stereo partly specified), the T/C reads like this: (dose: 0.5 mg/kg/injection, schedule: Q01DX009 (ip), vehicle: saline with Tween-80) 184 % of control; (dose: 1.0 mg/kg/injection, schedule: Q01DX009 (ip), vehicle: saline with Tween-80) 159 % of control; (dose: 1.0 mg/kg/injection, schedule: Q01DX009 (ip), vehicle: saline) 153 % of control; (dose: 2.0 mg/kg/injection, schedule: Q01DX009 (ip), vehicle: saline with Tween-80) 178 % of control; (dose: 4.0 mg/kg/injection, schedule: Q01DX009 (ip), vehicle: saline) 166 % of control; (dose: 8.0 mg/kg/injection, schedule: Q01DX009 (ip), vehicle: saline) 95 % of control.
Take `COc1ccc(C(=O)C[N+](=O)[O-])cc1`: the T/C is, setting by setting: under setting [5], 110 % of control; under setting [6], 100 % of control; under setting [7], 100 % of control.
In the case of `COc1cc(NCc2ccc3nc(N)nc(N)c3c2C)cc(OC)c1OC`, the T/C is, setting by setting: (dose: 5.0 mg/kg/injection, schedule: Q01DX009 (ip), vehicle: sodium bicarbonate) 154 % of control; (dose: 10.0 mg/kg/injection, schedule: Q01DX009 (ip), vehicle: sodium bicarbonate) 177 % of control; (dose: 12.5 mg/kg/injection, schedule: Q01DX009 (oral), vehicle: sodium bicarbonate) 113 % of control; under setting [4], 255 % of control; (dose: 20.0 mg/kg/injection, schedule: Q01DX009 (ip), vehicle: sodium bicarbonate) 227 % of control; (dose: 30.0 mg/kg/injection, schedule: Q01DX009 (ip), vehicle: saline with Tween-80) 398 % of control. For the same compound, the T/C by setting is: (dose: 40.0 mg/kg/injection, schedule: Q01DX009 (ip), vehicle: sodium bicarbonate) 243 % of control; (dose: 44.0 mg/kg/injection, schedule: Q01DX009 (ip), vehicle: saline with Tween-80) 97 % of control; (dose: 50.0 mg/kg/injection, schedule: Q01DX009 (oral), vehicle: sodium bicarbonate) 170 % of control; (dose: 67.0 mg/kg/injection, schedule: Q01DX009 (ip), vehicle: saline with Tween-80) 95 % of control; (dose: 100.0 mg/kg/injection, schedule: Q01DX009 (oral), vehicle: sodium bicarbonate) 89 % of control.
Take `Clc1ccc2c(Cl)ncnc2c1`: the T/C under setting [1] was 104 % of control and the T/C under setting [2] is 109 % of control.
Turning to `CCCCC(CC)COC(OCC(CC)CCCC)C(OCC(CC)CCCC)OCC(CC)CCCC` (stereo unspecified), the T/C is 100 % of control under setting [5], 100 % of control under setting [6] and 90 % of control under setting [7].
For `CCOC(=O)C1CNc2ccccc2N1` (stereo unspecified), the T/C reads like this: (dose: 7.18 mg/kg/injection, schedule: Q04DX003 (ip), vehicle: Klucel (hydroxypropylcellulose) (HPC)) 110 % of control; (dose: 14.37 mg/kg/injection, schedule: Q04DX003 (ip), vehicle: Klucel (hydroxypropylcellulose) (HPC)) 105 % of control; (dose: 28.75 mg/kg/injection, schedule: Q01DX001 (ip), vehicle: Klucel (hydroxypropylcellulose) (HPC)) 91 % of control; (dose: 28.75 mg/kg/injection, schedule: Q04DX003 (ip), vehicle: Klucel (hydroxypropylcellulose) (HPC)) 105 % of control; (dose: 57.5 mg/kg/injection, schedule: Q01DX001 (ip), vehicle: Klucel (hydroxypropylcellulose) (HPC)) 95 % of control; (dose: 57.5 mg/kg/injection, schedule: Q04DX003 (ip), vehicle: Klucel (hydroxypropylcellulose) (HPC)) 109 % of control. Moreover, the T/C (dose: 75.0 mg/kg/injection, schedule: Q01DX009 (ip), vehicle: Klucel (hydroxypropylcellulose) (HPC)) was 105 % of control; the T/C (dose: 115.0 mg/kg/injection, schedule: Q01DX001 (ip), vehicle: Klucel (hydroxypropylcellulose) (HPC)) was 91 % of control; the T/C (dose: 115.0 mg/kg/injection, schedule: Q01DX009 (ip), vehicle: Klucel (hydroxypropylcellulose) (HPC)) was 110 % of control; the T/C (dose: 115.0 mg/kg/injection, schedule: Q04DX003 (ip), vehicle: Klucel (hydroxypropylcellulose) (HPC)) is 95 % of control; the T/C (dose: 170.0 mg/kg/injection, schedule: Q01DX001 (ip), vehicle: Klucel (hydroxypropylcellulose) (HPC)) is 104 % of control.
Consider `Cn1c(-c2ccccc2)c2c(c1-c1ccccc1)CCCC2`, for which the T/C is, setting by setting: (dose: 100.0 mg/kg/injection, schedule: Q04DX002 (ip), vehicle: saline with Tween-80) 88 % of control; (dose: 200.0 mg/kg/injection, schedule: Q04DX002 (ip), vehicle: saline with Tween-80) 87 % of control.
As for `C(=Nc1ccc(/C=C\c2ccnc3ccccc23)cc1)Nc1ccc(/C=C\c2ccnc3ccccc23)cc1`, the T/C reads like this: (dose: 12.5 mg/kg/injection, schedule: Q01DX009 (ip), vehicle: saline with Tween-80) 100 % of control; under setting [8], 107 % of control; under setting [9], 100 % of control; under setting [6], 97 % of control.
As for `ClC1=CCCCC1`, the T/C runs as follows: (dose: 150.0 mg/kg/injection, schedule: Q01DX009 (ip), vehicle: saline) 120 % of control; (dose: 225.0 mg/kg/injection, schedule: Q01DX009 (ip), vehicle: saline) 115 % of control; (dose: 335.0 mg/kg/injection, schedule: Q01DX009 (ip), vehicle: saline) 120 % of control.
On to `O=C(O)c1ccc(Oc2nc3ccccc3s2)cc1`, for which the T/C was 95 % of control under setting [8], 95 % of control under setting [9] and 104 % of control under setting [5].
Regarding `C=C(C)COC(N)=O`, the T/C reads like this: under setting [5], 108 % of control; under setting [6], 104 % of control; under setting [7], 87 % of control.
Regarding `CC(=O)NCC(S)c1ccc(Cl)cc1` (stereo unspecified), the T/C is, setting by setting: under setting [1], 118 % of control; under setting [2], 95 % of control; under setting [3], 90 % of control.
